Assay results published in patent US20190343749A1, “PROTECTANTS” (Lincoln Manufacturing Inc., priority 2018, published 2019).

Test system: mixture of bacteria
Assay: CTFA Preservative Challenge Test on a shampoo
Assay type: cell-based
Settings: for Mixed Bacteria Day 7 Count / Mixed Bacteria Day 14 Count: shampoo containing the sample, initial count 4×10^6 cfu/mL; for kill reduction: shampoo, mixed bacteria
Protocol: The CTFA Preservative Challenge Test was performed on a shampoo containing the samples below against a mixture of bacteria having an initial count of 4×10^6 cfu/mL. The shampoos inoculated with bacteria were allowed to stand for 7 or 14 days. The samples were evaluated for surviving organisms on day 7 or day 14 for bacteria-innoculated shampoos.
E. Kull et al., “Mixtures of Quaternary Ammonium Compounds and Long-chain Fatty Acids as Antifungal Agents”, Applied Microbiology, 9:538-541 (1961). The synergism value (QA/Qa+QB/Qb) was determined. […] Qb is the concentration of pircotine olamine alone (in percent by weight) required to yield 100% retardation of the bacteria. When the value of (QA/Qa +QB/Qb) is less than one, the mixture is synergistic. Values for (QA/Qa+QB/Qb) of 1 and greater represent an additive effect and an antagonistic effect, respectively.

SMILES	concentration alone required to yield 100% retardation of the bacteria (Qa, Qb) (percent by weight in shampoo, plate count <10 cfu/g after 14 days) [%]	Mixed Bacteria Day 7 Count (day 7)	Mixed Bacteria Day 14 Count (day 14)	kill reduction (day 7)	kill reduction (day 14)
Cc1cc(CC(C)CC(C)(C)C)n(O)c(=O)c1.NCCO (centres unmarked) [0.1% Piroctone olamine, piroctone olamine]	> 0.1	1.2 × 10^5 cfu/mL	1.3 × 10^5 cfu/mL	(<97% kill reduction)	(<97% kill reduction)
CCCCCCCCCCCCCCCC[n+]1ccccc1 [1% cetylpyridinium chloride, cetylpyridinium chloride]	–	–	7 × 10^3 cfu/mL	–	–
COc1ccc(C(=O)[O-])cc1.[Na+] [1% sodium p-anisate, sodium p-anisate]	–	2.3 × 10^4 cfu/mL	–	(<99% kill reduction)	–
